Assay [1] has as its target T1, human GR (glucocorticoid receptor) (Homo sapiens, UniProt P04150).
T1 construct: expressed in transfected cells; host or cells: HEK293 (293-GR lysate)
T1 sequence (P04150 1-777): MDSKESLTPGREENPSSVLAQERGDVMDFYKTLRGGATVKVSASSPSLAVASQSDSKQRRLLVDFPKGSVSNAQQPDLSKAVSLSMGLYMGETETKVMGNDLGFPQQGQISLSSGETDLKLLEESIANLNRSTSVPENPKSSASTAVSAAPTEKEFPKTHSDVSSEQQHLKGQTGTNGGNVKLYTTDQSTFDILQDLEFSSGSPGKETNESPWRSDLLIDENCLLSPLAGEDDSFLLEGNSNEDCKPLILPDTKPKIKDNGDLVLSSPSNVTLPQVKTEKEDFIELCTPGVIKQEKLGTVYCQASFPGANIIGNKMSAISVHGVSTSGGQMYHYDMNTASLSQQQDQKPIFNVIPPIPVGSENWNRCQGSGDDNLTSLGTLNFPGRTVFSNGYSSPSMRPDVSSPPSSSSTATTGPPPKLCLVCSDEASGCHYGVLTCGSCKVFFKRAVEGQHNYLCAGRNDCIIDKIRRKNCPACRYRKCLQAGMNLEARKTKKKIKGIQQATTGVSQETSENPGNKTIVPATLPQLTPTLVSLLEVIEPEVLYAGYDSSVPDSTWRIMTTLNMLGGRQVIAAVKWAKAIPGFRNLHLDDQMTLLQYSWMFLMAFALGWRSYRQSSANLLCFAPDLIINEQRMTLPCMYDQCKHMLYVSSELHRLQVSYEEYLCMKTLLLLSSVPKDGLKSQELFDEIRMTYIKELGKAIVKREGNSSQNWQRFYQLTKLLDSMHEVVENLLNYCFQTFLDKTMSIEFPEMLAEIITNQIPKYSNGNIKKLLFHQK
The assay can be described thus: Steroid nuclear hormone receptor binding assay, GR. The settings on record: [3H]-dexamethasone, HEK293 lysate overexpressing human GR. The protocol: (§1) Cell lysates from human embryonic kidney HEK293 cells overexpressing human MR (mineralocorticoid receptor), GR (glucocorticoid receptor), AR (androgen receptor), or PR (progesterone receptor) are used for receptor-ligand competition binding assays to determine Ki values.
(§2) Briefly, steroid receptor competition binding assays are run in a buffer containing 20 mM HEPES buffer (pH=7.6), 0.2 mM EDTA, 75 mM NaCl, 1.5 mM MgCl2, 20% glycerol, 20 mM sodium molybdate, 0.2 mM DTT (dithiothreitol), 20 μg/mL aprotinin and 20 μg/mL leupeptin (assay buffer). Typically, steroid receptor binding assays include radio-labeled ligands, such as 0.25 nM [^3H]-aldosterone for MR binding, 0.7 nM [^3H]-dexamethasone for GR binding, 0.36 nM [^3H]-methyltrienolone for AR binding, and 0.29 nM [^3H]-methyltrienolone for PR binding, and either 20 μg 293-MR lysate, 20 μg 293-GR lysate, 22 μg 293-AR lysate, or 40 μg 293-PR lysate per well. Assays are typically run in 96-well format. Competing test compounds are added at various concentrations ranging from about 0.01 nM to 10 μM. Non-specific binding is determined in the presence of 500 nM aldosterone for MR binding, 500 nM dexamethasone for GR binding, or 500 nM methyltrienolone for AR and PR binding. […] After an incubation of 2 hours, plates are read in a Wallac Microbeta counter. […]

Assay [2] addresses T2, human MR (mineralocorticoid receptor) (Homo sapiens, UniProt P08235).
T2 construct: expressed in transfected cells; host or cells: HEK293 (293-MR lysate)
T2 sequence (P08235 1-984): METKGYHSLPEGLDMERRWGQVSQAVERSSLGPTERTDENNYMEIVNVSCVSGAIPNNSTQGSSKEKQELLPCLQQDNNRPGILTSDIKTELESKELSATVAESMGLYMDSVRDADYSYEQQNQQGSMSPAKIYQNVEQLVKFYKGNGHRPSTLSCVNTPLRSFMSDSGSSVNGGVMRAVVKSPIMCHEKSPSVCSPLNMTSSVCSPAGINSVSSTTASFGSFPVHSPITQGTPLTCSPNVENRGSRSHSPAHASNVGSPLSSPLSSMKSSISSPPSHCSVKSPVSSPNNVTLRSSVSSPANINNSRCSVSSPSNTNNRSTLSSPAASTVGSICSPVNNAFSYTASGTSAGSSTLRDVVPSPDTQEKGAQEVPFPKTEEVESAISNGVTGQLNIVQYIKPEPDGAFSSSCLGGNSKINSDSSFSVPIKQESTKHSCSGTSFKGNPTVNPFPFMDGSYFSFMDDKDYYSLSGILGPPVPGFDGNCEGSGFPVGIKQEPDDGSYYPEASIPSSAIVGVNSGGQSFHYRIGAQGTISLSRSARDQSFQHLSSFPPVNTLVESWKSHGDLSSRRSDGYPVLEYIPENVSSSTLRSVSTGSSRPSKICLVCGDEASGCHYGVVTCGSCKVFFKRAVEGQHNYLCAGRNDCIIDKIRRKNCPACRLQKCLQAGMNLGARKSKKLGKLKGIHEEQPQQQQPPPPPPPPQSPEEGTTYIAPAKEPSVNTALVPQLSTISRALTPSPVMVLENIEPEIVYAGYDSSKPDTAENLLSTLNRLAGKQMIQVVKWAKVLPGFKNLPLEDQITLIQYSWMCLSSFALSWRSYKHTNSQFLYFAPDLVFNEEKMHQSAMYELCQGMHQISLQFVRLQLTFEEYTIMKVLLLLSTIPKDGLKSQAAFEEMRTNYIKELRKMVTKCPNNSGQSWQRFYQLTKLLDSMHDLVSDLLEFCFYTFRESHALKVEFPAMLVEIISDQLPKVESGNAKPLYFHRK
As to the kind of experiment: Steroid nuclear hormone receptor binding assay, MR. As to conditions: [3H]-aldosterone, HEK293 lysate overexpressing human MR. The protocol: as §1, §2

Among the data in patent publication US8658638B2, “Mineralocorticoid receptor antagonist and methods of use” (priority 2009, dated 2014) are Ki values, retold here.

Usually Ki stands for a measure of affinity in units of concentration, obtained from inhibition or displacement. A higher Ki goes with weaker binding.

Molecules are shown by their SMILES.

For the compound `O=c1[nH]c2cc(/C=C3\c4ccccc4COc4cc(F)ccc43)ccc2n1[C@@H]1C[C@@H]2COCCN2C1` [Compound (I), 5-((E)-(3-fluorodibenzo[b,e]oxepin-11(6H)-ylidene)methyl)-1-((7R,8aR)-hexahydro-1H-pyrrolo[2,1-c][1,4]oxazin-7-yl)-1H-benzo[d]imidazol-2(3H)-one], the results for the Ki in assay [1] and in assay [2] were about 669 nM and about 0.4 nM, respectively.
